Where “and” joins values, the source holds several entries; their conditions need not be identical. Equal entries are not always repeated. ± gives the expanded uncertainty stated by the source.
Columns and labels:
[1] = for surface tension liquid-gas: Pendant drop shape; for mass density: 101 kPa, Liquid, Vibrating tube method
[2] = xn = mol fraction of the nth substance listed; conditions: x1 = 1; for surface tension liquid-gas: Pendant drop shape; for mass density: 101 kPa, Liquid, Vibrating tube method

Row | Structure (SMILES) | surface tension liquid-gas ([1]; 298.15 K) | mass density ([1]; 298.15 K) | surface tension liquid-gas ([1]; 303.15 K) | mass density ([1]; 303.15 K) | surface tension liquid-gas ([1]; 308.15 K) | mass density ([1]; 308.15 K) | surface tension liquid-gas ([1]; 313.15 K) | mass density ([1]; 313.15 K) | surface tension liquid-gas ([2]; 298.15 K) | mass density ([2]; 298.15 K) | surface tension liquid-gas ([2]; 303.15 K) | mass density ([2]; 303.15 K) | surface tension liquid-gas ([2]; 308.15 K) | mass density ([2]; 308.15 K) | surface tension liquid-gas ([2]; 313.15 K) | mass density ([2]; 313.15 K)
1 | Cc1ccc(C)c(C)c1 [1,2,4-trimethylbenzene] | 29.17 ± 0.33 mN/m | 871.66 ± 0.19 kg/m3 | 28.67 ± 0.32 mN/m | 867.61 ± 0.19 kg/m3 | 28.17 ± 0.32 mN/m | 863.59 ± 0.19 kg/m3 | 27.67 ± 0.31 mN/m | 859.54 ± 0.19 kg/m3 | – | – | – | – | – | – | – | –
2 | Cc1cc(C)cc(C)c1 [1,3,5-trimethylbenzene] | 28.09 ± 0.31 mN/m | 861.04 ± 0.18 kg/m3 | 27.67 ± 0.31 mN/m | 856.96 ± 0.18 kg/m3 | 27.24 ± 0.3 mN/m | 852.84 ± 0.18 kg/m3 | 26.82 ± 0.3 mN/m | 848.74 ± 0.18 kg/m3 | – | – | – | – | – | – | – | –
3 | CCCCOC(C)=O [butyl ethanoate] | 24.89 ± 0.27 mN/m | 876.18 ± 0.14 kg/m3 | 24.35 ± 0.27 mN/m | 871.31 ± 0.14 kg/m3 | 23.82 ± 0.27 mN/m | 866.24 ± 0.14 kg/m3 | 23.28 ± 0.26 mN/m | 861.57 ± 0.14 kg/m3 | – | – | – | – | – | – | – | –
4 | CCCCOC(C)=O [butyl ethanoate] + Cc1cc(C)cc(C)c1 | – | – | – | – | – | – | – | – | 24.89 ± 0.27 mN/m | 876.18 ± 0.14 kg/m3 | 24.35 ± 0.27 mN/m | 871.31 ± 0.14 kg/m3 | 23.82 ± 0.27 mN/m | 866.24 ± 0.14 kg/m3 | 23.28 ± 0.26 mN/m | 861.57 ± 0.14 kg/m3
5 | CCCCOC(C)=O [butyl ethanoate] + Cc1ccc(C)c(C)c1 | – | – | – | – | – | – | – | – | 24.89 ± 0.27 mN/m | 876.18 ± 0.14 kg/m3 | 24.35 ± 0.27 mN/m | 871.31 ± 0.14 kg/m3 | 23.82 ± 0.27 mN/m | 866.24 ± 0.14 kg/m3 | 23.28 ± 0.26 mN/m | 861.57 ± 0.14 kg/m3
6 | CCCOC(C)=O [propyl ethanoate] | 23.99 ± 0.27 mN/m | 882.64 ± 0.15 kg/m3 | 23.36 ± 0.26 mN/m and 23.35 ± 0.26 mN/m | 876.99 ± 0.15 kg/m3 | 22.73 ± 0.26 mN/m | 871.33 ± 0.15 kg/m3 | 22.1 ± 0.3 mN/m | 865.68 ± 0.15 kg/m3 | – | – | – | – | – | – | – | –
7 | CCCOC(C)=O [propyl ethanoate] + Cc1cc(C)cc(C)c1 | – | – | – | – | – | – | – | – | 23.99 ± 0.27 mN/m | 882.64 ± 0.15 kg/m3 | 23.35 ± 0.26 mN/m | 876.99 ± 0.15 kg/m3 | 22.73 ± 0.26 mN/m | 871.33 ± 0.15 kg/m3 | 22.1 ± 0.25 mN/m | 865.68 ± 0.15 kg/m3
8 | CCCOC(C)=O [propyl ethanoate] + Cc1ccc(C)c(C)c1 | – | – | – | – | – | – | – | – | 23.99 ± 0.27 mN/m | 882.64 ± 0.15 kg/m3 | 23.36 ± 0.26 mN/m | 876.99 ± 0.15 kg/m3 | 22.73 ± 0.26 mN/m | 871.33 ± 0.15 kg/m3 | 22.1 ± 0.3 mN/m | 865.68 ± 0.15 kg/m3

Source: the NIST ThermoML archive (doi:10.1016/j.jct.2006.07.025)
